Laboratory results taken from patent US7902170B2, “Influenza virus binding, sialylated oligosaccharide substance and use thereof” (priority 2000, dated 2011).
Entries after “also recorded” stand apart in the source; their conditions may differ.

The substances below were run on avian virus A/duck/Czechoslovakia/56, H4N6.
Assay type: binding, avian influenza A virus (H4N6)

Row | Substance | Binding of avian influenza virus HRP conjugate to glycolipid on TLC plate
1 | sulfatide | probably unspecific interaction
2 | NeuAcα3Galβ3GalNAcβ4(NeuAcα3)Galβ4GlcβCer [GD1a] | binding
3 | NeuAcα3Galβ4GlcβCer [GM3] | not observed
4 | NeuAcα3Galβ4GlcNAcβ3Galβ4GlcβCer [S-3-PG] | binding; also recorded: bound
5 | NeuAcα3Galβ3GalNAcβ4(NeuAcα8NeuAcα3)Galβ4GlcβCer [GT1b] | binding
